Test system: E14.5 fetal mouse brain cells
Experiment: Neurosphere assay of FACS-sorted fetal mouse brain cells
Type: cell-based
Details: CDr3, SSEA-1, Aldefluor, CD133 sorted cells
Protocol: Next, we were interested to test whether CDr3 can be used for the isolation of NSC from the heterogeneous populations of cells. According to the protocol described by Bibel et al.^7, we induced differentiation of E14 to generate FABP7-positive radial glial cells. The embryoid bodies generated from E14 in the absence of leukemia inhibitory factor were treated with retinoic acid for 2 days until dissociation into single cell suspension. The cells were stained with CDr3 and the CDr3bright and CDr3dim cells were collected separately by FACS. Each cell population was stained with FABP7 antibody and analyzed by flow cytometry. […] For the NSC isolation from the brain tissue, we incubated the E14.5 fetal mouse brain primary cells with CDr3, and the CDr3^bright and CDr3^dim cells were collected separately by FACS for gene expression analysis by real time RT-PCR and neurosphere assay. The expression levels of FABP7, Hes1, Musashi, Nestin and Pax6 in CDr3^bright cells were more than 3-fold higher than in CDr3^dim cells, while the differences of Hes5, Sox2 and Bmi1 expression levels were less than 2-fold (FIG. 5). […]
E14.5 fetal mouse brains were trypsinized in 0.25% trypsin with 1 mM EDTA solution (Invitrogen) for 30 mins at 37° C. before neutralization with FBS. […] The number and size of neurospheres generated from each group were measured after 6 days culture. […]

## Cc1cc(C)n2c1C=C1C=CC(CCC(=O)NCC=O)=[N+]1[B-]2(F)F [Aldefluor, BODIPY-aminoacetaldehyde]
  sizes of neurospheres from sorted cells: all similar

Source: patent US8889883B2, “BODIPY structure fluorescence dye for neural stem cell probe” (National University of Singapore, priority 2010, dated 2014)
